The test system of one data set is RAW264.7 cells. Kind of data set: RANKL-induced osteoclast differentiation, TRAP staining. It is filed as cell-based, murine. Particulars: all models tested. The text has this: HeLa and RAW264.7 cells (American Type Culture Collection, ATCC) were maintained in Dulbecco's modified Eagle's medium (DMEM) supplemented with 10% fetal bovine serum (FBS), penicillin/streptomycin (GIBCO), and fungizone. MOCP-5 cells were maintained in αMEM with 10% FBS and antibiotics. MDA-MB-231 parental cells (ATCC) and all sublines (SCP2, SCP4, SCP6, SCP28, SCP46) were maintained in DMEM with 10% FBS and antibiotics. The murine 4T1 and 4T1.2 cells, and human TSU-Pr1, and TSU-PR1-B2 cells were similarly maintained in DMEM with 10% FBS and antibiotics. For osteoclast differentiation assays, cells were treated with indicated concentration of RANKL in DMEM plus 10% FBS, with media changes performed every 2 days. Primary osteoclasts were isolated from bone marrow cells flushed from the tibia of 6-week-old wild type Balb/c mice and filtered through a […] cell-strainer before overnight culture in aMEM with 10% FBS. The following day 1×10^6 non-adherent cells were plated in 6-well plates supplemented with 50 ng/mL M-CSF for 2 days, followed by 50 ng/mL RANKL for an additional 4-5 days, with media changes every 2 days. Human osteoclasts were obtained from Lonza (2T-110) and differentiated by treatment with 33 ng/ml M-CSF and 66 ng/ml RANKL. CM was collected from the indicated sub-confluent tumor cells grown in DMEM with […] for 24 hours. The CM was passed through a 0.2 μm filter before addition to 1×10^5 RAW264.7 or MOCP-5 cells in a 6-well plate. The media was replaced with fresh CM daily. Cells were TRAP stained on day 6 using a leukocyte acid phosphatase kit (Sigma) and TRAP^+-multineucliated cells were quantified as mature osteoclasts. […]

The test system of the next data set is Mitf 3'UTR. Description: 3'UTR luciferase reporter assay, Mitf. It is filed as cell-based, mouse. Conditions: co-transfection in HeLa, relative to negative control miRNA. On the procedure: For NFκB reporter assays the pGL4.32 [luc2P/NF-κB-RE/Hygro] vector (Promega) was co-transfected with a Renilla-luciferase plasmid into cells. After 24 hours, cells were treated with 50 ng/ml RANKL, 50 ng/ml sICAM1, or 10 ng/ml TNFα for analysis at indicated timepoints. Wildtype and mutant 3′UTRs were PCR amplified from mouse genomic DNA. The 3′UTRs were cloned into the pMIR-REPORT vector (AMBION®) downstream of firefly luciferase. Mutations in miRNA target sites were generated using the QuikChange Multi site-directed mutagenesis kit (Stratagene). 5×10^4 HeLa cells were plated in 24-well plates 24 hours prior to transfection. 200 ng of reporter plasmid was co-transfected with the renilla-luciferase control plasmid and 10 pM pre-miRNA precursor or precursor control (AMBION®) using Lipofectamine 2000 (Invitrogen). Cells were lysed 24 hours after transfection and assayed for luciferase activity using the Glomax 96 Luminometer (Promega). Primer sequences for cloning or mutagenesis are listed below:
Reporter constructs were co-transfected with pre-miRs, as well as a Renilla luciferase plasmid for normalization.
Background: In a reporter assay the amount or activity of a reporter protein is the signal.

A short description of data set [1]: Serum miRNA levels after injection of pre-miRNAs, qRT-PCR. Format: in vivo, mice. Particulars: qPCR of mouse serum. On the procedure:
RNA from cell lines was isolated using a miRVana miRNA isolation kit (AMBION®). Total RNA from mouse bleeds was isolated using Trizol LS (Invitrogen) according to manufacturers instructions. For microarrays, 5 μg total RNA was labeled using the NCode Rapid Labeling System (Invitrogen) and hybridized to custom arrays. The arrays were analyzed using the G2565BA scanner (Agilent Technologies), and median fluorescent intensities were obtained after subtracting background. To identify differential miRNA expression between samples, the median fluorescent intensities were normalized using the median expression values within the array and log 2 values analyzed.
mRNA was analyzed by synthesizing cDNA using the Superscript III First-strand kit (Invitrogen) and qPCR performed using the Power SYBR® green PCR master mix (Applied Biosystems). Mature miRNAs were reverse transcribed using the TaqMan Reverse Transcription Kit (Applied Biosystems) followed by real-time PCR using TaqMan miRNA assays (Applied Biosystems). All analysis was performed using an ABI 7900HT PCR machine according to the manufacturer's instructions. A standard curve was created from serial dilutions from cDNA for each gene of interest. Values were normalized by the expression of GAPDH or RNU6B in each sample.
FIG. 8C illustrates qRT-PCR miRNA expression levels from serum samples of mice taken at indicated times after injection with miRNAs. The results were statistically significant with p<0.01 (**). […] In contrast, miR-141 and miR-219 took substantially longer to clear from the serum, maintaining ˜20% of the normalized expression at 24 hours.

Data set [2] deals with Pu.1, Nfatc1, Ctsk in RAW264.7 cells. Kind of data set: Western blot of Pu.1, Nfatc1, Ctsk after miRNA transfection and RANKL. It is filed as cell-based, murine. Conditions: transient miRNA transfection, 50 ng/ml RANKL. The method, then:
SDS lysis buffer (0.05 mM Tris-HCl, 50 mM BME, 2% SDS, 0.1% Bromophenol blue, 10% glycerol) was used to collect protein from cells. Samples were sonicated and heat denatured protein was equally loaded, separated on a 10% SDS-page gel, transferred onto a pure nitrocellulose membrane (BioRad), and blocked with 5% milk. Primary antibodies for immunoblotting included: anti-IκBα (1:1000 dilution, Cell signaling, 44D4), anti-p-p65 (1:500 dilution, Santa Cruz Biotechnology), anti-Pu.1 (5 μg/ml, Abcam, AB88082), anti-Nfatc1 (1 μg/ml, Abcam, AB25916), anti-Ctsk (4 μg/ml, Abcam, AB19027), anti-β-actin (1:5000 dilution, ABcam), for loading control. Membranes were incubated with horseradish peroxidase (HRP)-conjugated anti-mouse secondary antibody (1:2000 dilution, GE Healthcare) or anti-rabbit secondary antibody (1:2000 dilution, GE Healthcare) for 1 h and chemiluminescence signals were detected by ECL substrate (GE Healthcare).
To better examine the capacity of the miRNAs to inhibit osteoclast differentiation, osteoclast markers were examined in RAW264.7 cells transfected with the miRNA of interest, followed by RANKL treatment. FIG. 5F illustrates Western blot analysis for Pu.1, Nfatc1, or Ctsk in RAW264.7 cells after transient transfection with indicated miRNA and treatment with 50 ng/ml RANKL. Data in the figure represent average ±SEM; p values were based on Student's t-test.
(A western blot detects proteins with antibodies after separation by electrophoresis.)

The record followed here is US20160017326A1, “MICRORNAS AS FUNCTIONAL MEDIATORS AND BIOMARKERS OF BONE METASTASIS” (THE TRUSTEES OF PRINCETON UNIVERSITY, priority 2013, published 2016).

Consider “miR-133a: miRNA, SEQ ID NO: 61; delivered as pre-miRNA precursor; targets Mitf and Mmp14 (UUUGGUCCCCUUCAACCAGCUA; delivered as pre-miRNA precursor, chemistry not given here; listed as Homo sapiens)”, for which, in the data set with RAW264.7 cells, the “osteoclast maturation and activity” value is recorded as “strongly inhibit”. The “luciferase reporter activity, Mitf 3'UTR” value in the data set with Mitf 3'UTR is “repress expression of Mitf”. In data set [1], the “serum miRNA level within 6 hours of injection” value was “substantial decrease” and the “clearance from serum within 24 hours” value is recorded as “nearly full clearance”. Also, in data set [2], the “expression of Pu.1, Nfatc1, Ctsk (Western blot)” value (“expression of Pu.1, Nfatc1, Ctsk” below) is recorded as “inhibited early osteoclast differentiation, with minimal expression of Nfatc1”.

In the case of “miR-141: miRNA, SEQ ID NO: 69; delivered as pre-miRNA precursor; targets Mitf and Calcr (UAACACUGUCUGGUAACGAUGU; delivered as pre-miRNA precursor, chemistry not given here; listed as Homo sapiens)”, the “osteoclast maturation and activity” value in the data set with RAW264.7 cells is recorded as “strongly inhibit”. For the same substance, in the data set on Mitf 3'UTR, the “luciferase reporter activity, Mitf 3'UTR” value is reported as “repress expression of Mitf” and the “reduction of Mitf expression (3'UTR reporter)” value is reported as approximately 50%. In data set [1], the “normalized serum expression remaining at 24 hours” value was approximately 20%. Further, the “expression of Pu.1, Nfatc1, Ctsk” value in data set [2] was “inhibited early osteoclast differentiation, with minimal expression of Nfatc1”.

In the case of “miR-190: miRNA, SEQ ID NO: 64; delivered as pre-miRNA precursor; targets Calcr (UGAUAUGUUUGAUAUAUUAGGU; delivered as pre-miRNA precursor, chemistry not given here; listed as Homo sapiens)”, the “osteoclast maturation and activity” value in the data set with RAW264.7 cells is “Partial inhibition”. In data set [1], the “serum miRNA level within 6 hours of injection” value was “substantial decrease” and the “clearance from serum within 24 hours” value is listed as “nearly full clearance”. Further, the “expression of Pu.1, Nfatc1, Ctsk” value in data set [2] is “expressed Pu.1 and Nfatc1, but not Ctsk”.

Turning to “miR-219: miRNA, SEQ ID NO: 66; delivered as pre-miRNA precursor; targets Mitf and Traf6 (UGAUUGUCCAAACGCAAUUCU; delivered as pre-miRNA precursor, chemistry not given here; listed as Homo sapiens)”, the “osteoclast maturation and activity” value in the data set on RAW264.7 cells was “strongly inhibit”. For the same substance, in the data set with Mitf 3'UTR, the “luciferase reporter activity, Mitf 3'UTR” value is recorded as “repress expression of Mitf” and the “reduction of Mitf expression (3'UTR reporter)” value was approximately 20%. Besides, the “normalized serum expression remaining at 24 hours” value in data set [1] is given as approximately 20%. In addition, in data set [2], the “expression of Pu.1, Nfatc1, Ctsk” value is “inhibited early osteoclast differentiation, with minimal expression of Nfatc1”.
